Results reported in US12324814B2, “Manganese composition for enhancing immunity” (PEKING UNIVERSITY, priority 2019, dated 2025).

Legend:
[1] = system: melanoma B16-F10; test: Subcutaneous B16-F10 melanoma, manganese colloid with cyclophosphamide; type: in vivo, mice; details: 14 days after inoculation; colloid 5 mg/kg i.m. every two days; CTX 140 mg/kg i.p. day 6, 9, 12
[2] = system: IL-1β; test: Induction of inflammatory factor IL-1β by manganese products; type: cell-based; details: FIG. 2B
Protocol: Each of the products was tested.

[3] = system: mouse peritoneal macrophages; type: cell-based
[4] = system: inflammatory factors IL-1β and IL-18; type: cell-based, mouse
[5] = 20 μg manganese i.m. in 100 μl saline
Protocol: The mice were randomly divided into 2 groups according to body weight, namely: intramuscular injection of MnCl2 solution group (20 μg MnCl2 dissolved in 100 μl saline), and intramuscular injection of manganese colloid group (20 μg manganese colloid suspended in 100 μl saline). 20 μg here refers to the mass of the element manganese. At different times after the injection, 0.1 g of the muscle at the injection site was taken, digested with a microwave digestion apparatus, and then the content of the element manganese was determined by ICP-MS (Thermo X SERIES II).

[6] = system: influenza virus; design: species or system mice; details: mouse, in vivo
[7] = system: B16-OVA tumor; test: B16-OVA tail vein tumor metastasis model after immunization; type: in vivo, mice; details: 21 days after tumor injection
Protocol: Mn2OHPO4 colloid and aluminum adjuvant were mixed respectively with antigen OVA to immunize mice. Immunizations were performed 3 times with once every 7 days to activate the immune response in the body. B16-OVA tumor was injected into the tail vein to establish a tumor metastasis model. The mice were sacrificed 21 days after the tumor injection, and the lung tissues were taken out.

[8] = system: B16/OVA melanoma cells; test: B16/OVA melanoma subcutaneous in situ tumor model after immunization; type: in vivo, mice; details: 21 days after tumor inoculation; immunized three times with OVA ± adjuvant
Text: The mice were randomly divided into 4 groups according to body weight: blank control group (con), OVA control group, OVA and manganese colloid group (OVA+Mn), and OVA and aluminum adjuvant group (OVA+Al). After immunizing the mice three times according to the experimental scheme (once every 7 days), the B16/OVA melanoma cells were subcutaneously inoculated to establish an in situ tumor model. […] 21 days after tumor inoculation, the average tumor size of mice in the control group was 1906 mm^3, the average tumor size of mice in the OVA group was 925.5 mm^3, the average tumor size of mice immunized with manganese colloid was 222.9 mm^3, and the average tumor size of mice in the aluminum adjuvant group was 1946 mm^3, as shown in FIG. 14B.

O=P1(N(CCCl)CCCl)NCCCO1 (stereo not shown) [CTX, cyclophosphamide monohydrate]
tumor size [1]: 393.9 mm^3

[Cl][Mn][Cl] [MnCl2]
ability to activate inflammatory factors, MnCl2 compared with manganese colloid [2]: have the same ability to activate inflammatory factors | expression of type I interferon (ISG54, Viperin, total type I interferon in supernatant) [3]: can activate the expression of type I interferon | ability to activate inflammatory factors (caspase 1 and IL-1β cleavage, IL-1β and IL-18) [4]: significantly stronger than that of aluminum adjuvant | ability to activate inflammatory factors in NLRP3 knockout cells [4]: significantly lowered | retention at the injection site (manganese content in muscle) [5]: quickly metabolized

CTB
inflammation in the lungs [6]: a small amount of inflammation in lung | weight of the mice after influenza infection [6]: recovered slightly after a slight weight loss

B1: OVA: ovalbumin antigen (InvivoGen, #vac-pova), given without adjuvant (protein, UniProt P01012 2-386, looked up)
Ovalbumin: GSIGAASMEFCFDVFKELKVHHANENIFYCPIAIMSALAMVYLGAKDSTRTQINKVVRFDKLPGFGDSIEAQCGTSVNVHSSLRDILNQITKPNDVYSFSLASRLYAEERYPILPEYLQCVKELYRGGLEPINFQTAADQARELINSWVESQTNGIIRNVLQPSSVDSQTAMVLVNAIVFKGLWEKAFKDEDTQAMPFRVTEQESKPVQMMYQIGLFRVASMASEKMKILELPFASGTMSMLVLLPDEVSGLEQLESIINFEKLTEWTSSNVMEERKIKVYLPRMKMEEKYNLTSVLMAMGITDVFSSSANLSGISSAESLKISQAVHAAHAEINEAGREVVGSAEAGVDAASVSEEFRADHPFLFCIKHIATNAVLFFGRCVSP
melanomas on the lungs [7]: a certain number of melanomas | average tumor size [8]: 925.5 mm^3
